{
  "source": "patent US7763287B2",
  "about": "“Extract of Cercis chinensis having anti-oxidant activity and anti-aging activity, and cosmetical composition containing the extract for anti-oxidation, skin-aging protection and wrinkle improvement” (Hankook Pharm. Co., Inc., priority 2002, dated 2010)",
  "key": {"HEK-N/F cells [1]": {"tested_on": "HEK-N/F cells", "assay": "Protection of cells from oxidative damage induced by t-butylhydroperoxide", "type": "cell-based, human", "details": "1.5 mM t-butylhydroperoxide 3 hours", "protocol": "t-butylhydroperoxide is metabolized into a free radical intermediate as it comes in a cell, so that it causes lipid peroxidation, resulting in cell damage. This phenomenon is similar to that caused by oxidataive stress accumulated in cells and tissues. […] HEK-N/F, an epidermal cell line of a newborn baby, was treated with 1.5 mM of t-butylhydroxyperoxide for 3 hours."}, "HEK-N/F cells [2]": {"tested_on": "HEK-N/F cells", "assay": "Cell protection from UV irradiation (DNA damage, ethidium homodimer fluorescence)", "type": "cell-based, human", "details": "35 mJ/cm^2 UVB, Et2 fluorescence (DNA damage)", "protocol": "UV irradiation induces DNA damage and DNA-protein connection by increasing active oxygen in cells. When HEK-N/F cells were irradiated by 35 mJ/cm^2 of UVB, DNA chains in nucleus were cut. After uniting the broken chains to ethidium homodimer (Et2), a DNA chain intercalating fluorescent dye, extent of fluorescence was measured to quantify the amount of DNA damage. Particularly, HEK-N/F cells were cultured on serum-free KGM medium (Clonetics), which were inoculated into wells of a 24-well plate by 0.5−4×10^4 cells/2 cm^2. Then, the cells were cultured for 18 hours, after which a sample was treated thereto for 2 hours. […] The cells exposed on UV were further cultured for 1-7 hours, and then, […] ethidium homodimer (Et2, Millipore) was added. 30 minutes later, fluorescence was measured with Millipore microplate fluorometer Cytofluor 2350 (excitation: 485 nm, emission: 645 nm)."}, "[3]": {"tested_on": "back skin of SKH-1 hairless mouse", "assay": "Protection of skin tissues from UVB irradiation in hairless mice", "type": "in vivo", "protocol": "5-6 week old female hairless mice (SKH-hr 1) were raised for 14 days at 24±2° C. with 50±10% relative humidity and 12 hour day/night cycle. 30-60 minutes before the experiment, a sample was hyperdermically injected on 5 spots of the mice and the backs of the mice were irradiated by UVB. 5 mice per each group were put in a cage (20×15×5 cm) and UVB irradiation was performed using a UV lamp (HP-15M, 280-400 nm, max. 312 nm; Atto Co., Japan) at 15 cm distance by 15 kJ/m^2. After the completion of UV irradiation for 24 hours, back skin was cut and stored at −70° C. until peroxidation was measured.\nUVB irradiation causes serious lipid peroxidation in skin tissues, so measurement of the peroxided lipid content might lead to the measurement of skin damages. Particularly, UVB was irradiated on the back skin of SKH-1 hairless mouse. 48 hours later, the back skin tissues were cut to measure lipid peroxidation by thiobarbituric acid (TBA) method. The back skin of the mouse was put in a 10×50 mM K-P buffer solution for homogenation.\nHydrogen peroxidation was also investigated. The frozen back skin section was put in 0.1 M Tris-HCl buffer solution (pH 7.5) containing 1 mg/ml of glucose and 1 mg/ml diaminobenzidine (DAB), which was cultured at 37° C. for 5-6 hours. After being washed with distilled water, the solution was stained with 2% methyl green for 60 minutes. Nucleus stained blue and DAB peroxidase (brown) were observed under a microscope."}, "HEK-N/F cells [4]": {"tested_on": "HEK-N/F cells", "assay": "Prolongation of life span of a cell", "type": "cell-based, human", "details": "3 μg/ml during culture", "protocol": "HEK-N/F cells were obtained from foreskin of a newborn baby after its fibroblasts, another major component of skin, were treated with uridine bromide. Then, the cells were cultured in DMEM medium supplemented with 10 FBS. HEK-N/F cells were diluted consecutively at the ratio of 1:4 during the culture. Before being treated with samples, the cells were grown up to 3 PDL (population doubling level). During the culture, each sample was administered by […]. Medium was replaced every three days by fresh medium supplemented with a culture solution containing the equal concentration of the sample."}, "HEK-N/F cells [5]": {"tested_on": "HEK-N/F cells", "assay": "Telomere length / maximum PDL (Southern blot of TRFs)", "type": "cell-based, human", "protocol": "In the above Example 8, an extract of […] chinensis and active ingredients separated from the same were confirmed to have an effect of prolongation of life span of a cell. Thus, in this example, relation between the effect of prolongation of life span and the length of a telomere was investigated. Particularly, genomic DNA was extracted from each cell of different ages by using a nucleic acid extraction kit (Isoquick Nucleic Acid Extraction kit, ORCA Research Inc.), which was stored at 4° C. after being dissolved in Tris-EDTA solution (10 mM Tris-HCl, 1 mM EDTA, pH 8.0). 2 μl of 10×H buffer solution (TaKaRa), 2 μl of the extracted genomic DNA solution and distilled water were all mixed in a 1.5 ml tube, making final volume 19 μl. Then, 1 μl at of restriction enzyme […]) was added thereto. […] Then, the gel was immersed in 0.25 N HCl, followed by shaking for 15 minutes. The gel was washed twice with distilled water. This gel was dipped into denaturing solution (0.2 N NaOH, 0.6 M NaCl), followed by shaking for 25 minutes at room temperature. And then, the gel was washed three times with distilled water. On a blotting device filled with 6×SSC, nitrocellulose membrane (Optitran BA-S 85, Schleicher & Schuel), 3 mm filter paper, paper towel, glass plate and weight (2 kg) were loaded in that order, followed by blotting overnight. After the blotting was finished, membrane filter was soaked in 3×SSC, and then water was discarded smoothly. The positions of the wells on the membrane were marked. The membrane was placed between filter papers, followed by baking at 80° C. for overnight. […] After being dried, the membrane was covered with wrap and set in a cassette on which X-ray film (Scientific Imaging Film, Kodak) and intensifying screen were attached. Autoradiography was performed at -80° C. for overnight. Based on the developed film and the location of the membrane, the positions of the wells were marked by a magic pen. The density peak of TRFs was detected by a laser densitometer (UltroScan XL, Pharmacia) and its mobility was calculated."}},
  "data": [
    {"molecule": "Oc1cc(O)cc(/C=C/c2ccc(O)c(O)c2)c1", "note": "[Chemical Formula 5, piceatannol]", "values": [
      {"measurement": "Cell survival rate (%)", "setting": "HEK-N/F cells [1]", "result": "84.7±6.9", "unit": "%"},
      {"measurement": "TBARS (pmol/mg protein)", "setting": "HEK-N/F cells [1]; compound 50.0 µg/ml", "result": "520.2 ± 60.7", "unit": "pmol/mg protein"},
      {"measurement": "fluorescence lower than that of a control", "setting": "HEK-N/F cells [2]", "result": 66.7, "unit": "%"},
      {"measurement": "TBARS (nmol/mg protein)", "setting": "[3]; treating amount 10 mg/kg + UVB irradiation", "result": "0.16 ± 0.08", "unit": "nmol/mg protein"},
      {"measurement": "TBARS (nmol/mg protein)", "setting": "[3]; treating amount 30 mg/kg + UVB irradiation", "result": "0.07 ± 0.03", "unit": "nmol/mg protein"},
      {"measurement": "average life span of a cell", "setting": "HEK-N/F cells [4]", "result": 76, "unit": "days"},
      {"measurement": "life span, times as long as that of a control", "setting": "HEK-N/F cells [4]", "result": 2.1, "unit": "times"},
      {"measurement": "telomere shortening speed delayed, comparing to control", "setting": "HEK-N/F cells [5]", "result": 2.1, "unit": "times"},
      {"measurement": "maximum PDL", "setting": "HEK-N/F cells [5]; control 14.1", "result": 29.9}
    ]}
  ]
}
